Experimental data as given in patent publication US12225903B2, “Synergistic cleaning disinfectant solution with enhanced stability, and methods of using the same” (Diversey, Inc., priority 2019, dated 2025).
Read-outs that look alike come from different tables or passages of the source.

How the values were obtained:
[1] = system: fungus Aspergillus niger and yeast Saccharomyces cerevisiae; assay: Amount of antimicrobial acid required to pass EN1650:2008 (antifungal activity); assay type: cell-based; settings: gluconic and salicylic acid used in combination
Text: To pass the EN 1650:2008 antimicrobial testing protocol, a log reduction of greater than or equal to 4 must be achieved in fifteen minutes.

[2] = system: bacteria Staphylococcus aureus, Escherichia coli, and Lactobacillus brevis; assay: Amount of antimicrobial acid required to pass EN1276:2009 (antibacterial activity); assay type: cell-based; settings: gluconic and salicylic acid used in combination
Text: To pass the EN1276 test method, a log reduction of greater than or equal to 5 must be achieved in five minutes.

[3] = in combination with gluconic acid

Compound	Concentration of Antimicrobial Acids required to pass ([1]; Clean, 4° C.) [ppm]	Concentration of Antimicrobial Acids required to pass ([1]; Clean, 25° C.) [ppm]	Concentration of Antimicrobial Acids required to pass ([1]; Dirty, 4° C.) [ppm]	Concentration of Antimicrobial Acids required to pass ([1]; Dirty, 25° C.) [ppm]	Concentration of Antimicrobial Acids required to pass ([2]; Clean, 4° C.) [ppm]	Concentration of Antimicrobial Acids required to pass ([2]; Clean, 25° C.) [ppm]	Concentration of Antimicrobial Acids required to pass ([2]; Dirty, 4° C.) [ppm]	Concentration of Antimicrobial Acids required to pass ([2]; Dirty, 25° C.) [ppm]	required amount of salicylic acid in the disclosed cleaning disinfectant solution [3]	required amount of salicylic acid in the disclosed cleaning disinfectant solution ([3]; to pass EN1276:2009 and EN1650:2008)
O=C(O)[C@H](O)[C@@H](O)[C@H](O)[C@H](O)CO [Gluconic Acid, Gluconic acid]	750	600	750	750	300	150	300	150	–	–
O=C(O)c1ccccc1O [Salicylic Acid, Salicylic acid]	188	150	188	188	75	37	75	37	less than 2 % by weight	less than 2 wt %
